Laboratory results reported in patent publication US10383338B2, “Compositions and methods for making and using hydrolytic enzymes for degrading polysaccharides made by foodborne pathogenic bacteria” (University of Wyoming, priority 2014, dated 2019).
Read-outs that look alike come from different tables or passages of the source.

What was measured:
L. monocytogenes = format: cell-based; conditions: 1600 ppm, 10 min, room temperature; for killing of wild-type strain EGD-e: HTM-grown culture
Description: Here, the role of L. monocytogenes EPS in providing tolerance to disinfection and desiccation was evaluated. […] To distinguish between the contribution of EPS versus EPS-independent c-di-GMP-responsive agents, included in the tests were the ΔpdeB/C/D ΔpssC mutant characterized by elevated intracellular c-di-GMP levels but defective in EPS production.
Cultures were grown in HTM with 3% glucose at 37° C. for 24 h, at which point small uniform clumps are formed by the ΔpdeB/C/D strain. Aliquots (250 μl; 10^8 cfu/ml) of these cultures were mixed with disinfectants at 1:1 vol ratios in small glass tubes that also contained 0.1 g of acid washed glass beads (Sigma Life Sciences). Following a 10-min exposure to disinfectants at room temperature, D/E neutralizing broth (500 μl; Difco) was added. Samples were vigorously vortexed (for 5 min) and clumps of the ΔpdeB/C/D strain were dispersed due to the action of the glass beads. Serial dilutions were plated on BHI agar and colonies were counted following a 48-h incubation at 37° C.

[1] = test system: wild-type L. monocytogenes EGD-e; assay: Disinfection tolerance, wild-type strain; format: cell-based, Listeria monocytogenes; conditions: sodium hypochlorite 1600 ppm, 10 min, room temperature; HTM-grown cultures
Description: FIGS. 6A-6D: Role of the c-di-GMP-induced EPS in biofilm formation, cell aggregation, and tolerance of L. monocytogenes to disinfectants and desiccation. […] Cultures were grown for 6 days at 30° C. in LB (top panel) or LB supplemented with 3% glycerol (bottom panel). Shown are average results from two biological replicates, where each strain was grown in six wells in a replicate (i.e., six technical replicates). Black circle, wild type; red square, ΔpdeB/C/D; green triangle, ΔpdeB/C/D ΔpssC; blue cross, ΔpdeB/C/D ΔpssE. […] Overnight cultures grown in BHI were inoculated into HTM liquid medium at A600 of 0.01 and incubated at 30° C. with gentle shaking (rotary shaker, 125 rpm) for 48 h. 1, ΔpdeB/C/D; 2, wild type; 3, ΔpdeB/C/D ΔpssC; 4, ΔpdeB/C/D ΔpssE. […] Aliquots of the HTM-grown cultures were mixed with disinfectant solutions for 10 min at room temperature. […]
EPS is known to protect bacteria from environmental insults. Here, the role of L. monocytogenes EPS in providing tolerance to disinfection and desiccation was evaluated. […]
Solutions of sodium hypochlorite, hydrogen peroxide, and benzalkonium chloride (Sigma-Aldrich and Sigma Life Sciences) were prepared in sterile phosphate-buffered saline with disinfection concentrations of 1600 ppm, 200 mM, and 100 ppm, respectively. […] Serial dilutions were plated on BHI agar and colonies were counted following a 48-h incubation at 37° C.

## OCl [sodium hypochlorite]
L. monocytogenes
  survival of EPS producing ΔpdeB/C/D mutant relative to wild type: > 10^6 fold
  killing of wild-type strain EGD-e: highly effective in killing the wild-type strain
L. monocytogenes; listed as SH
  killing of wild-type strain EGD-e: lack of survivors
[1]
  killing / survivors after disinfectant treatment: highly effective in killing
